This is an account of results in patent US20190389843A1, “PYRROLE mTORC INHIBITORS AND USES THEREOF” (Navitor Pharmaceuticals, Inc., priority 2016, published 2019).

The test system of experiment [1] is pS6K1 in MCF7 (measure of mTORC1 activity). The experiment can be described thus: AlphaLISA Ultra pS6K1 assay. The following applies: MCF-7 cells, 2 hours compound incubation. It is filed as cell-based. The protocol:
(§1) Assay Protocol: • 1. […] 12,000˜16,000 cells will be seeded in 36 μL medium per well. • 2. Change the culture medium with fresh medium and incubate for another 2 hours. • 3. Add 12 μL (4λ) compounds into the cell plate by HAMILTON. Final DMSO concentration is 0.5%. Incubate for 2 hours. • 4. Aspirate 38 μL by HAMILTON, 10 μL rest per well. • 5. Add 10 μL 2× lysis buffer using HAMILTON; total volume in wells is 20 μL. Allow cells to shake for 30 min. Cover plate by plastic foil and store plate at −80° C. up to analysis. • 6. […] Add 5 ul acceptor beads into assay plate and incubation for 2 hours • 8. Add 5 ul donor beads and incubation for 2 hours • 9. Count the plate by EnSpire Multimode Plate Reader

In experiment [2] the test system is pAKT in MCF7 (measure of mTORC2 activity). Kind of experiment: AlphaLISA Ultra pAKT assay. The following applies: MCF-7 cells, 2 hours compound incubation. It is filed as cell-based. Here is the method:
as §1, with “16,000˜20,000” for “12,000˜16,000”, “(4×)” for “(4λ)”

Where a name gives a salt, the structure may show the parent alone. A value given as a limit tells only on which side of the number the result lay.

On to `Cc1c(CN2CCN(c3ccccc3Cl)CC2)cc(C(=O)N2CCN(c3cc(F)c(F)cc3C#N)CC2)n1C` [Example I-1], for which the IC50 in experiment [1] (Homo sapiens, MCF7, 2 h) was 10 to 1000 nM; in experiment [2] (Homo sapiens, MCF7, 2 h) it was above 1000 nM.
For `Cc1c(CN2CCN(c3ncccc3Cl)CC2)cc(C(=O)N2CCN(c3ccccn3)CC2)n1C` [Example I-2], the 50% inhibitory concentration (IC50) in experiment [1] was 1000 to 3000 nM; in experiment [2], above 10000 nM.
As to `Cc1c(CN2CCN(c3ncccc3Cl)CC2)cc(C(=O)N2CCN(c3cc(F)c(F)cc3C#N)CC2)n1C` [Example I-3], the IC50 in experiment [1] (Homo sapiens, MCF7, 2 h) is 10 to 1000 nM; in experiment [2] (Homo sapiens, MCF7, 2 h), above 10000 nM.
In the case of `Cc1c(CN2CCN(c3ccccc3C#N)CC2)cc(C(=O)N2CCN(c3cc(F)c(F)cc3C#N)CC2)n1C` [Example I-4], the IC50 is 10 to 1000 nM in experiment [1] (Homo sapiens, MCF7, 2 h) and above 1000 nM in experiment [2] (Homo sapiens, MCF7, 2 h).
On to `Cc1c(CN2CCN(c3ccccc3C#N)CC2)cc(C(=O)N2CCN(c3oc(C4CC4)nc3C#N)CC2)n1C` [Example I-14], for which the IC50 was 10 to 1000 nM in experiment [1] (Homo sapiens, MCF7, 2 h) and above 10000 nM in experiment [2] (Homo sapiens, MCF7, 2 h).
`Cc1c(CN2CCN(c3ccccc3C#N)CC2)cc(C(=O)N2CCN(c3nnccc3C#N)CC2)n1C` [Example I-15]: the IC50 in experiment [1] (Homo sapiens, MCF7, 2 h) was 1000 to 3000 nM; in experiment [2] (Homo sapiens, MCF7, 2 h), above 10000 nM.
The corresponding values for `Cc1c(CN2CCN(c3ccccc3C#N)CC2)cc(C(=O)N2CCN(c3cccnn3)CC2)n1C` [Example I-16] are 1000 to 3000 nM and above 10000 nM.
Regarding `Cn1cc(CN2CCN(c3ccccc3C#N)CC2)cc1C(=O)N1CCN(c2nnccc2C#N)CC1` [Example I-17], the IC50 is 3000 to 10000 nM in experiment [1] (Homo sapiens, MCF7, 2 h) and above 10000 nM in experiment [2] (Homo sapiens, MCF7, 2 h).
In the same order, the values of `Cc1c(CN2CCN(c3ccccc3C#N)CC2)cc(C(=O)N2CCN(c3ccccc3S(C)(=O)=O)CC2)n1C` [Example I-21] are 1000 to 3000 nM and above 10000 nM.
`Cc1nc(C#N)c(N2CCN(C(=O)c3cc(CN4CCN(c5ccccc5C#N)CC4)c(C)n3C)CC2)o1` [Example I-22]: the IC50 in experiment [1] (Homo sapiens, MCF7, 2 h) was 1000 to 3000 nM; in experiment [2] (Homo sapiens, MCF7, 2 h) it was above 10000 nM.
As to `Cc1c(CN2CCN(c3ccccc3C#N)CC2)cc(C(=O)N2CCN(c3ccccc3C#N)CC2)n1C` [Example I-23], the IC50 in experiment [1] (Homo sapiens, MCF7, 2 h) is 10 to 1000 nM; in experiment [2] (Homo sapiens, MCF7, 2 h), above 10000 nM.
Consider `Cc1c(CN2CCN(c3ccccc3CCCN)CC2)cc(C(=O)N2CCN(c3ccccc3)C[C@@H]2C)n1C` [Example I-24, (S)-(4-((4-(2-(3-aminopropyl)phenyl)piperazin-1-yl)methyl)-1,5-dimethyl-1H-pyrrol-2-yl)(2-methyl-4-phenylpiperazin-1-yl)methanone ditrifluoroacetate salt], for which the IC50 in experiment [1] (Homo sapiens, MCF7, 2 h) is 3000 to 10000 nM; in experiment [2] (Homo sapiens, MCF7, 2 h) it was above 10000 nM.
The corresponding values for `Cc1c(CN2CCN(c3ccccc3Cl)CC2)cc(C(=O)N2CCN(c3cccc(CCCN)c3)C[C@H]2C)n1C` [Example I-27, (R)-(4-(3-(3-aminopropyl)phenyl)-2-methylpiperazin-1-yl)(4-((4-(2-chlorophenyl)piperazin-1-yl)methyl)-1,5-dimethyl-1H-pyrrol-2-yl)methanone trifluoroacetate salt] are 1000 to 3000 nM and above 10000 nM.
`Cc1c(CN2CCN(c3ccccc3Cl)CC2)cc(C(=O)N2CCN(c3ccccc3)C[C@@H]2C)n1CCCN` [Example I-29, (S)-(1-(3-aminopropyl)-4-((4-(2-chlorophenyl)piperazin-1-yl)methyl)-5-methyl-1H-pyrrol-2-yl)(2-methyl-4-phenylpiperazin-1-yl)methanone dihydrochloride salt]: the IC50 in experiment [1] (Homo sapiens, MCF7, 2 h) is 3000 to 10000 nM; in experiment [2] (Homo sapiens, MCF7, 2 h), above 10000 nM.
As for `Cc1c(CN2CCN(c3ccccc3Cl)CC2)cc(C(=O)N2CCN(c3cccc(CCCN)c3)C[C@@H]2C)n1C` [Example I-30, (S)-(4-(3-(3-aminopropyl)phenyl)-2-methylpiperazin-1-yl)(4-((4-(2-chlorophenyl)piperazin-1-yl)methyl)-1,5-dimethyl-1H-pyrrol-2-yl)methanone trifluoroacetate salt], the IC50 in experiment [1] (Homo sapiens, MCF7, 2 h) is 3000 to 10000 nM; in experiment [2] (Homo sapiens, MCF7, 2 h), above 10000 nM.
In the same order, the values of `Cc1c(CN2CCN(c3ccccc3Cl)CC2)cc(C(=O)N2CCN(c3cccc4cc[nH]c34)C[C@@H]2C)n1C` [Example I-31, (S)-(4-(1H-indol-7-yl)-2-methylpiperazin-1-yl)(4-((4-(2-chlorophenyl)piperazin-1-yl)methyl)-1,5-dimethyl-1H-pyrrol-2-yl)methanone] are 1000 to 3000 nM and above 10000 nM.
On to `Cc1c(CN2CCN(c3ccccc3Cl)CC2)cc(C(=O)N2CCN(c3ccc4[nH]ccc4c3)C[C@@H]2C)n1C` [Example I-33, (S)-(4-(1H-indol-5-yl)-2-methylpiperazin-1-yl)(4-((4-(2-chlorophenyl)piperazin-1-yl)methyl)-1,5-dimethyl-1H-pyrrol-2-yl)methanone trifluoroacetate salt], for which the IC50 is 1000 to 3000 nM in experiment [1] (Homo sapiens, MCF7, 2 h) and above 10000 nM in experiment [2] (Homo sapiens, MCF7, 2 h).
In the case of `Cc1c(CN2CCN(c3ccccc3Cl)CC2)cc(C(=O)N2CCN(c3ccc4cc[nH]c4c3)C[C@@H]2C)n1C` [Example I-34, (S)-(4-(1H-indol-6-yl)-2-methylpiperazin-1-yl)(4-((4-(2-chlorophenyl)piperazin-1-yl)methyl)-1,5-dimethyl-1H-pyrrol-2-yl)methanone trifluoroacetate salt], the IC50 in experiment [1] (Homo sapiens, MCF7, 2 h) was 1000 to 3000 nM; in experiment [2] (Homo sapiens, MCF7, 2 h), above 10000 nM.
In the case of `Cc1c(CN2CCN(c3ccccc3Cl)CC2)cc(C(=O)N2CCn3ncc(-c4ccccc4)c3C2)n1C` [Example I-35, (4-((4-(2-Chlorophenyl)piperazin-1-yl)methyl)-1,5-dimethyl-1H-pyrrol-2-yl)(3-phenyl-6,7-dihydropyrazolo[1,5-a]pyrazin-5(4H)-yl)methanone], the IC50 in experiment [1] (Homo sapiens, MCF7, 2 h) was 1000 to 3000 nM; in experiment [2] (Homo sapiens, MCF7, 2 h) it was above 10000 nM.
The corresponding values for `Cn1c(C(=O)N2CCN(c3ccccc3)CC2)cc(CN2CCN(c3ccccc3Cl)CC2)c1C#N` [Example I-36] are 10 to 1000 nM and above 10000 nM.
The corresponding values for `Cc1nc(N2CCN(C(=O)c3cc(CN4CCN(c5ccccc5Cl)CC4)c(C#N)n3C)CC2)ccc1F` [Example I-37] are 10 to 1000 nM and above 3000 nM.
`Cc1cccc(N2CCN(C(=O)c3cc(CN4CCN(c5ccccc5Cl)CC4)c(C#N)n3C)CC2)n1` [Example I-38]: the IC50 in experiment [1] (Homo sapiens, MCF7, 2 h) was 10 to 1000 nM; in experiment [2] (Homo sapiens, MCF7, 2 h), above 3000 nM.
In the same order, the values of `Cn1c(C(=O)N2CCN(c3ccccc3)CC2)cc(CN2CCN(c3ccccc3C#N)CC2)c1C#N` [Example I-39] are 10 to 1000 nM and above 10000 nM.
The corresponding values for `Cc1c(CN2CCN(c3ccccc3Cl)CC2)cc(C(=O)N2CCCN(c3cccc(C#N)c3)CC2)n1C` [Example I-40, 3-(4-(4-((4-(2-chlorophenyl)piperazin-1-yl)methyl)-1,5-dimethyl-1H-pyrrole-2-carbonyl)-1,4-diazepan-1-yl)benzonitrile] are 3000 to 10000 nM and above 10000 nM.
As to `Cc1c(CN2CCCN(c3ccccc3Cl)CC2)cc(C(=O)N2CCN(c3cccc(C#N)c3)C[C@@H]2C)n1C` [Example I-41, (S)-3-(4-(4-((4-(2-chlorophenyl)-1,4-diazepan-1-yl)methyl)-1,5-dimethyl-1H-pyrrole-2-carbonyl)-3-methylpiperazin-1-yl)benzonitrile], the IC50 in experiment [1] (Homo sapiens, MCF7, 2 h) was 1000 to 3000 nM; in experiment [2] (Homo sapiens, MCF7, 2 h), above 10000 nM.
As for `Cc1c(CN2CCN(c3ccccc3C#N)CC2)cc(C(=O)N2CCN(c3ccccn3)C[C@@H]2C)n1C` [Example I-42], the IC50 in experiment [1] (Homo sapiens, MCF7, 2 h) is 10 to 1000 nM; in experiment [2] (Homo sapiens, MCF7, 2 h), above 3000 nM.
With `Cc1c(CN2CCN(c3ccccc3C#N)CC2)cc(C(=O)N2CCN(c3cccc(C#N)n3)CC2)n1C` [Example I-43], the IC50 is 10 to 1000 nM in experiment [1] (Homo sapiens, MCF7, 2 h) and above 3000 nM in experiment [2] (Homo sapiens, MCF7, 2 h).
Consider `Cc1c(CN2CCN(c3ncccc3Cl)CC2)cc(C(=O)N2CCN(c3ccccn3)CC2)n1C` [Example I-44], for which the values for the IC50 in experiment [1] and in experiment [2] were 10 to 1000 nM and above 3000 nM, respectively.
As for `Cc1c(CN2CCN(c3ccccc3C#N)CC2)cc(C(=O)N2CCCN(c3cccc(C#N)c3)CC2)n1C` [Example I-45, 2-(4-((5-(4-(3-cyanophenyl)-1,4-diazepane-1-carbonyl)-1,2-dimethyl-1H-pyrrol-3-yl)methyl)piperazin-1-yl)benzonitrile], the IC50 in experiment [1] (Homo sapiens, MCF7, 2 h) is 1000 to 3000 nM; in experiment [2] (Homo sapiens, MCF7, 2 h), above 10000 nM.
Consider `Cc1c(C(C)N2CCN(c3ccccc3Cl)CC2)cc(C(=O)N2CCN(c3ccc(F)cc3)C[C@@H]2C)n1C` (stereo partly drawn) [Example I-46, (4-(1-(4-(2-Chlorophenyl)piperazin-1-yl)ethyl)-1,5-dimethyl-1H-pyrrol-2-yl)((S)-4-(4-fluorophenyl)-2-methylpiperazin-1-yl)methanone], for which the IC50 is 1000 to 3000 nM in experiment [1] (Homo sapiens, MCF7, 2 h) and above 10000 nM in experiment [2] (Homo sapiens, MCF7, 2 h).
For `Cc1c(CN2CCCN(c3ccccc3Cl)CC2)cc(C(=O)N2CCN(c3ccc(F)cc3)C[C@@H]2C)n1C` [Example I-47, (S)-(4-((4-(2-chlorophenyl)-1,4-diazepan-1-yl)methyl)-1,5-dimethyl-1H-pyrrol-2-yl)(4-(4-fluorophenyl)-2-methylpiperazin-1-yl)methanone], the IC50 in experiment [1] (Homo sapiens, MCF7, 2 h) is 1000 to 3000 nM; in experiment [2] (Homo sapiens, MCF7, 2 h), above 10000 nM.
